# Laboratory results taken from patent US20090227507A1, “Angiotensin (1-7) Dosage Forms and Uses Thereof” (UNIVERSITY OF SOUTHERN CALIFORNIA, priority 2008, published 2009).
# Columns and labels:
# Type in all cases: in vivo, human
# [1] = system: CD8 cells in peripheral blood; experiment: Flow cytometry of peripheral blood, CD8 lymphocytes; USB003 SC once daily for 7 days in healthy men; design: key to Subjects with shift, Absolute CD8, N-L (normal to low) / Subjects with shift, Absolute CD8, L-N (low to normal) / Subjects with shift, Absolute CD8, H-N (high to normal) / Subjects with shift, Absolute CD8, N-H (normal to high): — signifies subject with no shift from baseline; conditions: for CD8, Absolute, Mean at Baseline: Baseline (Day 1)
# Experimental: • Single-center, randomized, double-blind, placebo-controlled, 2 cohort dose-escalation trial of once daily dosing over a 7-day period (7 doses total): • Cohort 1: 2 subjects treated with placebo and 8 subjects treated with 200 μg/kg USB003 (A(1-7)) • Cohort 2: 2 subjects treated with placebo and 8 subjects treated with 300 μg/kg USB003 • For each cohort, there was a Screening Period, Treatment Phase, Follow-up Period, and Study Termination or Early Withdrawal Day. Subjects were confined to the study unit during the Treatment Phase. • Cohort 2 was treated approximately 1 week after completion of the Treatment Phase for Cohort 1 to allow time for the assessment of safety and tolerability in the first cohort.
# Pharmacological Effect: The following evaluations (under efficacy and safety in the protocol) were performed: • Effects on the number of mature blood cells: • 1. CBC (with differential), platelet count, reticulocyte count. • Effects on early hematopoietic progenitor cells and mature lymphocyte subsets in the periphery: • 1. Flow cytometry to evaluate frequency of peripheral blood progenitor cells (eg, CD34^+) and lymphocyte subsets (eg, CD3, CD4, CD8) in peripheral blood. • 2. Collection of blood for later possible culture for progenitor cells (eg, colony forming units-granulocyte/macrophage [CFU-GM]) to evaluate potential effects on CD34^+ hematopoietic progenitor cells in peripheral blood. • 3.
# The effect of USB003 on the number of mature blood cells was assessed by the complete blood count with differential, platelet and reticulocyte counts. The effects on early hematopoietic progenitor cells and mature lymphocyte subsets in the periphery were assessed by flow cytometry. In addition, blood was collected and processed to enable culture of progenitors at a later time.
# Red blood cell (RBC) count, RBC indices, white blood cell count (WBC) with differential, reticulocyte count, platelet count, hemoglobin (Hb), hematocrit (Hct), plasma hemoglobin, peripheral flow cytometry, including CD34^+, flow cytometry for enumeration of CD3, CD4, and CD8 lymphocytes, and culture for progenitor cells in peripheral blood including colony-forming units-granulocyte/macrophage (CFU-GM).
# [2] = 12-lead electrocardiogram in healthy men; conditions: Screening or Study Day 8
# From the text: Safety assessments during the study period included vital sign measurement (systolic [SBP] and diastolic [DBP] blood pressure, heart rate [HR], respiratory rate [RR] in the sitting position, and oral temperature), clinical chemistry, hematology, urinalysis, 12-lead electrocardiogram (ECG) in the supine position, and AE monitoring. Clinical chemistry/hematology samples were drawn within a 30-minute period prior to dosing on selected dosing days.
# [3] = Physical examination in healthy men; conditions: all dose groups; baseline (Day 1) to Day 20
# From the text: On Day −1, subjects who met the eligibility criteria underwent a PE, vital sign measurements, and had samples drawn to evaluate clinical laboratory parameters. On Study Days 1 through 7 for each cohort, subjects received a single SC injection of USB003 at the assigned dose level or placebo. Subjects were kept in the clinic under observation for the entire Day −1 to Day 8 period. Subjects were discharged from the clinic on the morning of Day 8 after all scheduled procedures and a 24-hour urine collection had been completed. Subjects were scheduled to return to the clinic on Days 11, 14, 17, and 20 for hematology measurements and selected safety assessments. Subjects were to be released from the study following a post-study PE on Day 20.
# On Day 20 of the study, subjects were to have returned to the clinic for the post-study check and PE. Blood samples for hematology and plasma USB003 were also drawn.
# Laboratory measurements were conducted by a local clinical laboratory.
substance,measurement,setting,value
Asp-Arg-Val-Tyr-Ile-His-Pro [USB003],"CD8, Absolute, Mean at Baseline",[1]; 200 μg/kg,564.6 cells/μL
same,"Subjects with shift, Absolute CD8, H-N (high to normal)","[1]; 200 μg/kg, Baseline to Day 8",—
same,"Subjects with shift, Absolute CD8, L-N (low to normal)","[1]; 200 μg/kg, Baseline to Day 8",—
same,"Subjects with shift, Absolute CD8, N-H (normal to high)","[1]; 200 μg/kg, Baseline to Day 8",1
same,"Subjects with shift, Absolute CD8, N-L (normal to low)","[1]; 200 μg/kg, Baseline to Day 8",—
same,"Subjects with shift, Absolute CD8, H-N (high to normal)","[1]; 200 μg/kg, Baseline to Day 20",—
same,"Subjects with shift, Absolute CD8, L-N (low to normal)","[1]; 200 μg/kg, Baseline to Day 20",—
same,"Subjects with shift, Absolute CD8, N-H (normal to high)","[1]; 200 μg/kg, Baseline to Day 20",—
same,"Subjects with shift, Absolute CD8, N-L (normal to low)","[1]; 200 μg/kg, Baseline to Day 20",—
same,"CD8, Absolute, Mean Change from Baseline","[1]; 200 μg/kg, Day 3",−34.2 cells/μL
same,"CD8, Absolute, Mean Change from Baseline","[1]; 200 μg/kg, Day 5",31.9 cells/μL
same,"CD8, Absolute, Mean Change from Baseline","[1]; 200 μg/kg, Day 7",0.0 cells/μL
same,"CD8, Absolute, Mean Change from Baseline","[1]; 200 μg/kg, Day 8",−3.3 cells/μL
same,"CD8, Absolute, Mean Change from Baseline","[1]; 200 μg/kg, Day 17",−52.8 cells/μL
same,"CD8, Absolute, Mean Change from Baseline","[1]; 200 μg/kg, Day 20",−31.7 cells/μL
same,"CD8, Absolute, Mean at Baseline",[1]; 300 μg/kg,452.1 cells/μL
same,"Subjects with shift, Absolute CD8, H-N (high to normal)","[1]; 300 μg/kg, Baseline to Day 8",—
same,"Subjects with shift, Absolute CD8, L-N (low to normal)","[1]; 300 μg/kg, Baseline to Day 8",—
same,"Subjects with shift, Absolute CD8, N-H (normal to high)","[1]; 300 μg/kg, Baseline to Day 8",1
same,"Subjects with shift, Absolute CD8, N-L (normal to low)","[1]; 300 μg/kg, Baseline to Day 8",—
same,"Subjects with shift, Absolute CD8, H-N (high to normal)","[1]; 300 μg/kg, Baseline to Day 20",—
same,"Subjects with shift, Absolute CD8, L-N (low to normal)","[1]; 300 μg/kg, Baseline to Day 20",—
same,"Subjects with shift, Absolute CD8, N-H (normal to high)","[1]; 300 μg/kg, Baseline to Day 20",—
same,"Subjects with shift, Absolute CD8, N-L (normal to low)","[1]; 300 μg/kg, Baseline to Day 20",—
same,"CD8, Absolute, Mean Change from Baseline","[1]; 300 μg/kg, Day 3",59.5 cells/μL
same,"CD8, Absolute, Mean Change from Baseline","[1]; 300 μg/kg, Day 5",71.0 cells/μL
same,"CD8, Absolute, Mean Change from Baseline","[1]; 300 μg/kg, Day 7",93.6 cells/μL
same,"CD8, Absolute, Mean Change from Baseline","[1]; 300 μg/kg, Day 8",45.1 cells/μL
same,"CD8, Absolute, Mean Change from Baseline","[1]; 300 μg/kg, Day 17",−47.3 cells/μL
same,"CD8, Absolute, Mean Change from Baseline","[1]; 300 μg/kg, Day 20",26.8 cells/μL
same,12-lead ECG findings,[2],no abnormal CS 12-lead ECGs findings
same,PE findings,[3],no changes from baseline
